Target: Phosphoglycerate mutase 1 (PGAM1) (Homo sapiens, UniProt P18669)
Test: SPR
Format: binding

Phosphoglycerate mutase 1 (PGAM1), sequence (P18669 2-254): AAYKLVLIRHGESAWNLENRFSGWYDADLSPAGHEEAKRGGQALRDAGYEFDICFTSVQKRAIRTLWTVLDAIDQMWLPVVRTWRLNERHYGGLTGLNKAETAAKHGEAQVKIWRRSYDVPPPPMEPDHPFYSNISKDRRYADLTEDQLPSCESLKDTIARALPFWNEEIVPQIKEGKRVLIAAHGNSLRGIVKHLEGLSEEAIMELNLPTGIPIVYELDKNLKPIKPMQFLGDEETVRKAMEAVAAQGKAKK

Cc1cccc2c3c(ccc12)C1=C(C(=O)C3=O)[C@@H](C)CO1 [DHT, Dihydrotanshinone I]
Kd: 697 nM

Source: PMC12337087 (Phytotherapy Research, 2025)
